Measured values as given in ChEMBL document CHEMBL1153557, “Effect of calcineurin inhibitors on posaconazole blood levels as measured by the MVista microbiological assay” (Antimicrob Agents Chemother, 2008).
Activity calls are given as the source filed them. No cut-off for these calls is given here.

Key:
Kluyveromyces marxianus [1] = test: Antifungal activity against Candida kefyr ATCC 46764 at 3 ug/ml after 14 to 18 hrs; assay type: functional; conditions: read-out: IZ
Kluyveromyces marxianus [2] = test: Antifungal activity against Candida kefyr ATCC 46764 at 1.5 ug/ml after 14 to 18 hrs; assay type: functional; conditions: read-out: IZ
Kluyveromyces marxianus [3] = test: Antifungal activity against Candida kefyr ATCC 46764 at 0.5 ug/ml after 14 to 18 hrs; assay type: functional; conditions: read-out: IZ
Homo sapiens = species: Homo sapiens; test: Effect on […] level in plasma of transplant patient by MVista microbiological assay; assay type: functional
Kluyveromyces marxianus [4] = test: Antifungal activity against Candida kefyr ATCC 46764 after 14 to 18 hrs; assay type: functional, organism-based

With `C/C=C/C[C@@H](C)[C@@H](O)[C@H]1C(=O)N[C@@H](CC)C(=O)N(C)CC(=O)N(C)[C@@H](CC(C)C)C(=O)N[C@@H](C(C)C)C(=O)N(C)[C@@H](CC(C)C)C(=O)N[C@@H](C)C(=O)N[C@H](C)C(=O)N(C)[C@@H](CC(C)C)C(=O)N(C)[C@@H](CC(C)C)C(=O)N(C)[C@@H](C(C)C)C(=O)N1C` [CYCLOSPORINE] the zone of inhibition at 3 µg/mL (Kluyveromyces marxianus [1]) was 23.3 mm, the zone of inhibition at 1.5 µg/mL (Kluyveromyces marxianus [2]) was 20.5 mm and the zone of inhibition at 0.5 µg/mL (Kluyveromyces marxianus [3]) was 15.5 mm.
`CC[C@@H]([C@H](C)O)n1ncn(-c2ccc(N3CCN(c4ccc(OC[C@@H]5CO[C@@](Cn6cncn6)(c6ccc(F)cc6F)C5)cc4)CC3)cc2)c1=O` [POSACONAZOLE] showed a zone of inhibition at 3 µg/mL (Kluyveromyces marxianus [1]) of 23.2 mm, a zone of inhibition at 1.5 µg/mL (Kluyveromyces marxianus [2]) of 20.6 mm and a zone of inhibition at 0.5 µg/mL (Kluyveromyces marxianus [3]) of 16.5 mm.
With `CO[C@H]1C[C@@H]2CC[C@@H](C)[C@@](O)(O2)C(=O)C(=O)N2CCCC[C@H]2C(=O)O[C@H]([C@H](C)C[C@@H]2CC[C@@H](O)[C@H](OC)C2)CC(=O)[C@H](C)/C=C(\C)[C@@H](O)[C@@H](OC)C(=O)[C@H](C)C[C@H](C)/C=C/C=C/C=C/1C` [SIROLIMUS] the Activity (Homo sapiens) was 7.1 ng/mL.
`C=CC[C@@H]1/C=C(\C)C[C@H](C)C[C@H](OC)[C@H]2O[C@@](O)(C(=O)C(=O)N3CCCC[C@H]3C(=O)O[C@H](/C(C)=C/[C@@H]3CC[C@@H](O)[C@H](OC)C3)[C@H](C)[C@@H](O)CC1=O)[C@H](C)C[C@@H]2OC` [TACROLIMUS ANHYDROUS] was tested, and the Activity (Homo sapiens) was 4.2 ng/mL and the Activity (Kluyveromyces marxianus [4]) was “inactive”.
